Results reported in PMC11750672, “The in vivo metabolic pathway of Deg-AZM and in vitro investigations into the contribution of drug metabolizing enzymes and drug transporters in the drug interactions of Deg-AZM, a clinical-stage new transgelin agonist” (Frontiers in Pharmacology, 2025).

Legend:
pooled HLM = assay: HLM phenotyping assay, control group and positive control systems; format: in vitro ADME, human; details: 1 μM, HLM 0.5 mg/mL, NADPH, 90 min, control group without inhibitors
Procedure: Deg-AZM (1 μM) was treated with pooled HLM (0.5 mg/mL) and NADPH (1 mM) for 90 min with or without seven specific inhibitors (10 µM furafylline for CYP1A2, 10 µM ticlopidine for CYP2B6, 5 µM montelukast for CYP2C8, 10 µM sulfaphenazole for CYP2C9, 10 µM ticlopidine for CYP2C19, 2.5 µM quinidine for CYP2D6, 1 µM ketoconazole for CYP3A). Isoform-selective probe substrates, 10 µM phenacetin for CYP1A2, 20 µM bupropion for CYP2B6, 2 µM amodiaquine for CYP2C8, 5 µM diclofenac for CYP2C9, 20 µM S-mephenytoin for CYP2C19, 5 µM bufuralol for CYP2D6, 2 µM midazolam for CYP3A4, were used as positive controls.

CYP2B6 [1] = target: T1, CYP2B6 (Homo sapiens, UniProt P20813); assay: CYP inhibition in HLMs; format: in vitro ADME; details: HLM 0.5 mg/mL, probe bupropion, 20 min
T1 construct: from tissue; host or cells: human liver microsomes
T1 sequence (P20813 1-491): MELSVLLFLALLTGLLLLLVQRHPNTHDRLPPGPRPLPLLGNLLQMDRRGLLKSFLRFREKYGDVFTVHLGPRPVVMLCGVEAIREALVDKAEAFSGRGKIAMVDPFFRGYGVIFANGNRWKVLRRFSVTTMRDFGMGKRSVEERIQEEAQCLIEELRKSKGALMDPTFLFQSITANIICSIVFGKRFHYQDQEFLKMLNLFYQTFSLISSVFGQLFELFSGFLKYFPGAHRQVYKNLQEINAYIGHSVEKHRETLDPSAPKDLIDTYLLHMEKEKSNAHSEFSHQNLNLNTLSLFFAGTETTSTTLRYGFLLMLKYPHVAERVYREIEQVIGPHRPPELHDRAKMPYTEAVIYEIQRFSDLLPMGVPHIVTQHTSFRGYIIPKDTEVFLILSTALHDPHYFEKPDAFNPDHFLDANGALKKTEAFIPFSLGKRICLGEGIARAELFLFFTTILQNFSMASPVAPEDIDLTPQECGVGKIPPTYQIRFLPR
Procedure: (§1) CYP inhibition potential of Deg-AZM was assessed in NADPH-fortified HLMs (0.5 mg/mL for CYP1A2, CYP2B6, CYP2C19 and CYP2D6 system, 0.035 mg/mL for CYP2C9 system, 0.05 mg/mL for CYP3A4 system, and 0.025 mg/mL for CYP2C8 system) using CYP probe substrates (same as the positive controls in HLM phenotyping assays). Deg-AZM in triplicates (0, 0.2, 0.6, 2.0, 6.0, 20, and 60 μM) was treated with each probe of CYP1A2 (20 min), CYP2B6 (20 min), CYP2C8 (10 min), CYP2C9 (60 min), CYP2C19 (45 min), CYP2D6 (30 min) and CYP3A4 (15 min). Probe substrate metabolites were analyzed by LC-MS/MS and the peak area ratios of analytes to internal standard (Indapamide) were calculated. The activity of the CYP450 enzyme subtype is directly proportional to the concentration of the corresponding probe substrate metabolites. The average of the measured values of each group was calculated, the control tube value was set as 100%, the residual probe substrate metabolites was calculated in the presence of positive inhibitors and Deg-AZM at series concentration. IC50 values were calculated by the dose-response model (nonlinear regression) in GraphPad Prism software.

CYP2C19 = target: T2, CYP2C19 (Homo sapiens, UniProt P33261); assay: CYP inhibition in HLMs; format: in vitro ADME; details: HLM 0.5 mg/mL, probe S-mephenytoin, 45 min
T2 construct: from tissue; host or cells: human liver microsomes
Procedure: as §1

CYP2C8 = target: T3, CYP2C8 (Homo sapiens, UniProt P10632); assay: CYP inhibition in HLMs; format: in vitro ADME; details: HLM 0.025 mg/mL, probe amodiaquine, 10 min
T3 construct: from tissue; host or cells: human liver microsomes
T3 sequence (P10632 1-490): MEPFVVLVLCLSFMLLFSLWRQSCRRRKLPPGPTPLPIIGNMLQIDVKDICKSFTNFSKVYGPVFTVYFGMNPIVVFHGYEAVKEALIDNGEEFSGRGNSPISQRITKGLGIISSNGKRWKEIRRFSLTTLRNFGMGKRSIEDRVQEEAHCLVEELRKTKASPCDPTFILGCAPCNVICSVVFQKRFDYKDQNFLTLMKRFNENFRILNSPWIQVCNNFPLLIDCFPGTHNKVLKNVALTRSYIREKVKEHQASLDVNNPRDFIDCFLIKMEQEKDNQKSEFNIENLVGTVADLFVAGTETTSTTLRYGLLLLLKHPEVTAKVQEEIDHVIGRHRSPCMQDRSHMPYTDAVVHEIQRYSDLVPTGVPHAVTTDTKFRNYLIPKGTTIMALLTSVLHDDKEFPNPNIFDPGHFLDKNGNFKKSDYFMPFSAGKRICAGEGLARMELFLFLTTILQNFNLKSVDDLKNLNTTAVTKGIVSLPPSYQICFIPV
Procedure: as §1

CYP2C9 = target: T4, CYP2C9 (Homo sapiens, UniProt P11712); assay: CYP inhibition in HLMs; format: in vitro ADME; details: HLM 0.035 mg/mL, probe diclofenac, 60 min
T4 construct: from tissue; host or cells: human liver microsomes
Procedure: as §1

CYP2B6 [2] = assay: CYP induction (mRNA, qPCR) in human hepatocytes; details: for CYP2B6 induction, % of PC: PC phenobarbital 1 mM
Text: After culture and complete induction, total mRNA was extracted by TRNzol RNA Extraction Kit (purchased from Tiangen Biochemical Technology Co., Ltd., Beijing). The RNA was reverse transcribed into cDNA according to the instructions of the Transcriptor First Strand cDNA Synthesis Kit (purchased from Roche, Switzerland). Using reverse transcribed cDNA as a template, amplifying the internal reference genes of β-Actin of the sample and target genes of CYP1A2, CYP2B6, and CYP3A4 respectively to compare the expression differences.

T2 sequence (P33261 whole entry): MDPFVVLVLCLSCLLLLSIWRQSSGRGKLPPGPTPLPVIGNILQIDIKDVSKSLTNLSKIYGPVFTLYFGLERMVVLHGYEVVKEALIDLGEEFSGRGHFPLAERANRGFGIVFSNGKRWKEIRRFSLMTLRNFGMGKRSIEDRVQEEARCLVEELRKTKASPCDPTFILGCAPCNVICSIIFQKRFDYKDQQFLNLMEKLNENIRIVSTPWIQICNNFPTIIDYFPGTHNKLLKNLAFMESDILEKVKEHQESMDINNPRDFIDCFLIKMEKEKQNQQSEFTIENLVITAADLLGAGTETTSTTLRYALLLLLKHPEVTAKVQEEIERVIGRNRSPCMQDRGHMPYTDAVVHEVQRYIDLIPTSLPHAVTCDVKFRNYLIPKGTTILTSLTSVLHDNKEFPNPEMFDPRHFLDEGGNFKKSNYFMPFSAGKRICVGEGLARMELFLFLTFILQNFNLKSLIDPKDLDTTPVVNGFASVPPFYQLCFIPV
T4 sequence (P11712 whole entry): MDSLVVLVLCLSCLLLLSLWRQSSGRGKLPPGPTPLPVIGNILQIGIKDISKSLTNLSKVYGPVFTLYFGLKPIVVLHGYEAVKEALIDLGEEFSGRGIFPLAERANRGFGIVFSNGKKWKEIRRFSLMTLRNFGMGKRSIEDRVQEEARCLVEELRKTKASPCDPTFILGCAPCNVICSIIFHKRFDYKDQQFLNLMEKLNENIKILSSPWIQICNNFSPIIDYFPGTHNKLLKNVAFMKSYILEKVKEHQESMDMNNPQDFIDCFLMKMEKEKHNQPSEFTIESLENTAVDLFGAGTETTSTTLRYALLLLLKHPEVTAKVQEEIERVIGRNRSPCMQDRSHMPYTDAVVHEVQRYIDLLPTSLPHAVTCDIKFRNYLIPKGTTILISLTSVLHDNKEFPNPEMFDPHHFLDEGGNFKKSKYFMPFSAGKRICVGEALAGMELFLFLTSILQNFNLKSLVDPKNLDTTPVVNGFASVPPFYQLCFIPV

SMILES: CCC1OC(=O)C(C)C(O)C(C)C(O)C(C)(O)CC(C)CN(C)C(C)C(O)C1(C)O (stereo not drawn) [Deg-AZM, Deglycosylated azithromycin]
- Deg-AZM remaining (pooled HLM): 45.7%
- IC50 (CYP2B6 [1]): 8.97 µM
- IC50 (CYP2C19): > 60 µM
- IC50 (CYP2C8): > 60 µM
- IC50 (CYP2C9): > 60 µM
- CYP2B6 induction, % of PC (CYP2B6 [2]; 5 μM, batch HUB): −0.466%
- CYP2B6 induction, % of PC (CYP2B6 [2]; 5 μM, batch LHuf 17905B): 6.61%
- CYP2B6 induction, % of PC (CYP2B6 [2]; 5 μM, batch MWB): 4.39%
- CYP2B6 mRNA induction, times of control group (CYP2B6 [2]; 5 μM, hepatocyte batch HUB): 0.942
- CYP2B6 mRNA induction, times of control group (CYP2B6 [2]; 5 μM, hepatocyte batch LHuf 17905B): 1.61
- CYP2B6 mRNA induction, times of control group (CYP2B6 [2]; 5 μM, hepatocyte batch MWB): 1.60
- CYP2B6 induction, % of PC (CYP2B6 [2]; 25 μM, batch HUB): 0.0278%
- CYP2B6 induction, % of PC (CYP2B6 [2]; 25 μM, batch LHuf 17905B): 5.00%
- CYP2B6 induction, % of PC (CYP2B6 [2]; 25 μM, batch MWB): 6.09%
- CYP2B6 mRNA induction, times of control group (CYP2B6 [2]; 25 μM, hepatocyte batch HUB): 1.00
- CYP2B6 mRNA induction, times of control group (CYP2B6 [2]; 25 μM, hepatocyte batch LHuf 17905B): 1.46
- CYP2B6 mRNA induction, times of control group (CYP2B6 [2]; 25 μM, hepatocyte batch MWB): 1.83
- CYP2B6 induction, % of PC (CYP2B6 [2]; 100 μM, batch HUB): 2.97%
- CYP2B6 induction, % of PC (CYP2B6 [2]; 100 μM, batch LHuf 17905B): 19.8%
- CYP2B6 induction, % of PC (CYP2B6 [2]; 100 μM, batch MWB): 24.3%
- CYP2B6 mRNA induction, times of control group (CYP2B6 [2]; 100 μM, hepatocyte batch HUB): 1.37
- CYP2B6 mRNA induction, times of control group (CYP2B6 [2]; 100 μM, hepatocyte batch LHuf 17905B): 2.84
- CYP2B6 mRNA induction, times of control group (CYP2B6 [2]; 100 μM, hepatocyte batch MWB): 4.33
- Induction effect on CYP2B6 (conclusion) (CYP2B6 [2]; 5, 25, and 100 µM, three batches of human hepatocytes): has an induction effect
